Numbers after ± are expanded uncertainties.
Experiment: not given
Conditions: Crystal; DSC
Work on `O=C(O)c1ccccc1` [benzoic acid] yielded a Triple point temperature of 395.63 ± 1.2 K.
`O=C(Nc1c(Cl)cncc1Cl)c1ccc(OC(F)F)c(OCC2CC2)c1` [roflumilast] showed a Triple point temperature of 432.4 ± 1.2 K.
`Cc1nnc(C(C)C)n1[C@@H]1C[C@H]2CC[C@@H](C1)N2CC[C@H](NC(=O)C1CCC(F)(F)CC1)c1ccccc1` [maraviroc] gave a Triple point temperature of 468.1 ± 1.2 K.

Experiment: Molar enthalpy of transition or fusion
Conditions: Crystal; DSC
For `O=C(O)c1ccccc1` [benzoic acid], the “Molar enthalpy of transition or fusion” value was 4.25 ± 0.43 kcal/mol.
For `O=C(Nc1c(Cl)cncc1Cl)c1ccc(OC(F)F)c(OCC2CC2)c1` [roflumilast], the “Molar enthalpy of transition or fusion” value was 9.04 ± 0.932 kcal/mol.
With `Cc1nnc(C(C)C)n1[C@@H]1C[C@H]2CC[C@@H](C1)N2CC[C@H](NC(=O)C1CCC(F)(F)CC1)c1ccccc1` [maraviroc] the “Molar enthalpy of transition or fusion” value was 8.7 ± 0.884 kcal/mol.

Experiment: refractive index (Na D-line) (dimensionless)
Conditions: 293.15 K; 101.33 kPa; Liquid; Standard Abbe refractometry
Work on `CCCCO` [butan-1-ol] yielded a refractive index of 1.3989 ± 0.002.
Work on `CCC(C)=O` [butanone] yielded a refractive index of 1.3787 ± 0.002.
Compound `CCCO` [propan-1-ol] has a refractive index of 1.3854 ± 0.002.
For `O` [water], the refractive index was 1.3334 ± 0.002.
Compound `CCO` [ethanol] has a refractive index of 1.361 ± 0.002.
Compound `C[S+](C)[O-]` [dimethyl sulfoxide] has a refractive index of 1.4789 ± 0.002.
For `CN(C)C=O` [dimethylformamide], the refractive index was 1.4309 ± 0.002.
`C1CCCCC1` [cyclohexane] gave a refractive index of 1.4235 ± 0.002.
With `CCCC(C)=O` [pentan-2-one] the refractive index was 1.3893 ± 0.002.

From the NIST ThermoML archive (doi:10.1021/acs.jced.9b00710)
